Biological target: T1, PefR (GAS PefR) (Streptococcus pyogenes, UniProt Q9A1K6)
T1 construct: gene SPy_0228; full ORF, N-terminal 6xHis tag (pRham N-His, pAJS11), tag cleavage not mentioned; expressed in E. coli (E. cloni 10G); as purified carries some heme
Assay: UV-visible absorbance titration at […] nm, linear fit
Format: binding

T1 sequence (Q9A1K6 entry or part of it): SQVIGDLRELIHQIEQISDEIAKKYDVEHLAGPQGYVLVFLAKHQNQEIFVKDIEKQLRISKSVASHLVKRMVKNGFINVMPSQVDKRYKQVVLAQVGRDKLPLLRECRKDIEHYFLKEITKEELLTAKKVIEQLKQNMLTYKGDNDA

Question: How did the Kd turn out when `C=CC1=C(C)c2cc3[nH]c(cc4nc(cc5[nH]c(cc1n2)c(C)c5CCC(=O)O)C(CCC(=O)O)=C4C)c(C)c3C=C` [PPIX] was run?
Answer: 9 µM
